Experiments:
[1] = Absorption spectra / molar extinction coefficient (Beer-Lambert); assay type: physicochemical; conditions: for λexc (nm): excitation wavelength; for ε: molar extinction coefficient at λexc
Description: The properties of representative complexes of the invention (complexes 14, 18, 21, 78a, 78b, 88a, 88b, 93, 104) were investigated. The presence of the Boc-group was not predicted to alter these properties. The experiments were thus carried out with the Boc group for the functionalized complexes. The absorption and emission spectra were recorded in a pH gradient (pH 4 to pH 10).
(§1) Traditionally, molar extinction coefficients, ε, are calculated using the Beer-Lambert equation and involve measuring the absorbance of a series of solutions of a complex at different known concentrations. A plot of absorbance at a particular wavelength against concentration allows determination of ε from the gradient of the linear correlation. The quantum yield (QY) of the complexes increases as the pH decreases. For complexes 78b, 88a, 88b and 93, the quantum yield at pH 8 is approaching 0 meaning that the complexes are therefore hardly emissive at physiological pH and conversely, these complexes are very bright at pH 4.
This could be useful as excitation at, or near, this wavelength would allow equal excitation of both the unprotonated and protonated complex, which exist in a pH-dependent equilibrium in solution. An isosbestic point was not observed for Complex 14.

[2] = Quantum yield of europium complexes at different pH; assay type: physicochemical; conditions: for Q.Y. pH 4 / Q.Y. pH 8: text gives the same values in %; for Q.Y. pH 4 / ΦpH 4 (quantum yield): pH 4; for ΦpH 4 (quantum yield) / ΦpH 8 (quantum yield): λexc 330-332 nm; for Q.Y. pH 8 / ΦpH 8 (quantum yield): pH 8
Description: The properties of representative complexes of the invention (complexes 14, 18, 21, 78a, 78b, 88a, 88b, 93, 104) were investigated. The presence of the Boc-group was not predicted to alter these properties. The experiments were thus carried out with the Boc group for the functionalized complexes. […]
as §1

[3] = Excited state (emission) lifetime at different pH; assay type: physicochemical
Description: (§2) An emission lifetime value at each pH was obtained by plotting the decay of the emission lifetime over time and fitting the curve to a simple exponential decay model. The pKa values of the complexes were determined for the reversible protonation.

[4] = pKa determination from emission lifetime variation versus pH
Description: as §2

[5] = Time-gated emission intensity, pH 4/pH 8 ratio; assay type: physicochemical; conditions: λem=613.5 nm
Source text: Data was normalised for a 60 μs delay at pH 4.
Data were normalised for a 60-460 μs time window at pH 4. Measurements were taken in NH4CH3CO2 (pH 4 and 5), MES (pH 5.5, 6 and 6.5), HEPES (pH 7) and NH4HCO3 (pH 8) buffers (all 0.1 M with 0.1 M NaCl).
A benefit of the long-lived lifetime of emission for the lanthanides is the possibility of performing time-gated measurements. Further to this, as a result of the ‘switch-on’ nature of complex 18, the unprotonated and protonated forms differ in emission lifetime. These properties allow the unique opportunity to control, to some degree, the apparent pKa value as well as the relative degree of ‘switching-on’ of the probe by changing the time window. This aspect is illustrated in practice using appropriate buffers of different pH (in the presence of 0.1 M NaCl) in FIG. 28.
By measuring the emission intensity of the hypersensitive ΔJ=2 band at different pH with a longer delay time after excitation (FIG. 28 top), a shallower curve was obtained (a lower apparent pKa).
A summary of the ratios of emission intensity (at λem=613.5 nm) at pH 4 (sensor on) and pH 8 (sensor off), where the emission signal was measured between different time windows, for complex 18 is presented in Table 4.
The extent of the switch-on response of the complex may be quantified, for comparison purposes, as the ratio of the emission intensity at the maximum of the ΔJ=2 band at pH 4, when the sensor is fully switched ‘on’, and pH 8, when the sensor is effectively ‘off’.

[6] = Fluorescence intensity at 620 nm as a function of pH (Pherastar FS plate reader); assay type: physicochemical; conditions: pH 4 to pH 7.8; 0.1% BSA; FIG. 29
Description: The fluorescence intensity of representative complexes of the invention (78a, 78b, 104) was measured using a Plate Reader Pherastar FS equipped with a flash lamp. The buffers (pH 4 to pH 7.8) were distributed in a white 96-well plate, then the lanthanide complexes (10 μL at 110 nM) were distributed in an aqueous solution comprising 0.1% BSA. By way of comparison, the fluorescence intensity of the following complexes was also measured: […]

| SMILES | ε (molar extinction coefficient) ([1]; at the wavelength (330-336 nm)) [M⁻¹ cm⁻¹] | λexc (nm) [1] [nm] | ε [1] [M⁻¹ cm⁻¹] | Q.Y. pH 4 [2] [%] | ΦpH 4 (quantum yield) [2] [%] | Q.Y. pH 8 [2] [%] | ΦpH 8 (quantum yield) [2] [%] | Excited state lifetime ([3]; pH 4) [ms] | Excited state lifetime ([3]; pH 5) [ms] | Excited state lifetime ([3]; pH 6) [ms] | Excited state lifetime ([3]; pH 7) [ms] | Excited state lifetime ([3]; pH 8) [ms] | pKa ([4]; 295 K, I = 0.1M NaCl) | Excited state lifetime ([3]; pH 9) [ms] | ε (molar extinction coefficient) ([1]; at the wavelength (330-331 nm)) [L M^−1 cm^−1] | variation of fluorescence intensity at 620 nm as a function of pH [6] | further results |
| --- | --- | --- | --- | --- | --- | --- | --- | --- | --- | --- | --- | --- | --- | --- | --- | --- | --- |
| CCN(CC)c1cc(C#Cc2cc(CN3CCN(Cc4cccc(P(C)(=O)[O-])n4)CCN(Cc4cccc(P(C)(=O)[O-])n4)CC3)nc(P(C)(=O)[O-])c2)ccc1OC.[Eu+3] [Complex 14] | 11450 | 331 | 11450 | 16.8 | 16.8 | 0.5 | 0.5 | 1.16 | 1.15 | 1.06 | 0.74 | 0.53 | 6.75 |  |  |  | isosbestic point ([1]; absorption spectra pH 4 to 10): not observed; Excited state lifetime ([3]; pH 9, listed as 14): 0.5 ms; Excited state lifetime ([3]; pH 9, listed as drawing 59): 0.50 ms |
| CCN(CC)c1cc(C#Cc2cc(CN3CCN(Cc4cccc(P(C)(=O)[O-])n4)CCN(Cc4cc(C#Cc5ccc(OC)c(N(CC)CC)c5)cc(P(C)(=O)[O-])n4)CC3)nc(P(C)(=O)[O-])c2)ccc1OC.[Eu+3] [Complex 18] |  | 328 | 35000 | 17.6 |  | 0.2 |  |  | 0.96 | 0.78 | 0.47 | 0.34 | 6.3 | 0.34 |  |  | Excited state lifetime ([3]; pH 3): 1 ms; Excited state lifetime ([3]; pH 4, listed as 18): 1 ms; Excited state lifetime ([3]; pH 4, listed as drawing 63): 1.00 ms; ratio of emission intensity pH 4/pH 8 ([5]; time window 60-460 μs): 32; ratio of emission intensity pH 4/pH 8 ([5]; time window 1000-2000 μs): 227; ratio of emission intensity pH 4/pH 8 ([5]; time window 1500-2500 μs): 465 |
| CCN(CC)c1cc(C#Cc2cc(CN3CCN(Cc4cc(C#Cc5ccc(OC)c(N(CC)CC)c5)cc(P(C)(=O)[O-])n4)CCN(Cc4cc(C#Cc5ccc(OC)c(N(CC)CC)c5)cc(P(C)(=O)[O-])n4)CC3)nc(P(C)(=O)[O-])c2)ccc1OC.[Eu+3] [Complex 21] |  | 331 | 45000 | 17 |  | 0.1 |  | 0.84 | 0.83 | 0.59 | 0.32 | 0.25 | 6.21 | 0.24 | 45000 |  |  |
| CCN(CC)c1cc(C#Cc2cc(CN3CCN(Cc4cc(C#Cc5ccc(OCCCC(=O)O)c(N(CC)CC)c5)cc(P(C)(=O)[O-])n4)CCN(Cc4cc(CCCNC(=O)OC(C)(C)C)cc(P(C)(=O)[O-])n4)CC3)nc(P(C)(=O)[O-])c2)ccc1OCCCC(=O)O.[Eu+3] [Complex 77a] |  |  |  |  |  |  |  | 0.97 | 0.95 | 0.53 | 0.39 | 0.27 |  |  |  |  |  |
| CCN(CC)c1cc(C#Cc2cc(CN3CCN(Cc4cc(C#Cc5ccc(OCCCC(=O)NCCCS(=O)(=O)[O-])c(N(CC)CC)c5)cc(P(C)(=O)[O-])n4)CCN(Cc4cc(CCCNC(=O)OC(C)(C)C)cc(P(C)(=O)[O-])n4)CC3)nc(P(C)(=O)[O-])c2)ccc1OCCCC(=O)NCCCS(=O)(=O)[O-].[Eu+3] [Complex 78a] |  | 330 | 39000 | 16 | 16 | 0.3 | 0.3 | 1.04 | 0.98 |  | 0.34 | 0.25 | 6.20 |  | 39000 | pH sensitive | Excited state lifetime ([3]; pH 6, listed as 78a): 0.7 ms; Excited state lifetime ([3]; pH 6, listed as drawing 109): 0.70 ms |
| CCN(C)c1cc(C#Cc2cc(CN3CCN(Cc4cc(C#Cc5ccc(OCCCC(=O)NCCCS(=O)(=O)[O-])c(N(C)CC)c5)cc(P(C)(=O)[O-])n4)CCN(Cc4cc(CCCNC(=O)OC(C)(C)C)cc(P(C)(=O)[O-])n4)CC3)nc(P(C)(=O)[O-])c2)ccc1OCCCC(=O)NCCCS(=O)(=O)[O-].[Eu+3] [Complex 78b] |  | 330 | 39000 | 14.5 | 14.5 |  | 0.01 | 1.05 | 0.77 | 0.42 | 0.29 |  | 5.34 |  | 39000 | pH sensitive | Excited state lifetime ([3]; pH 8, listed as 78b): 0.3 ms; Excited state lifetime ([3]; pH 8, listed as drawing 110): 0.30 ms |
| CCN(CCCS(=O)(=O)O)c1cc(C#Cc2cc(CN3CCN(Cc4cc(C#Cc5ccc(OC)c(N(CC)CCCS(=O)(=O)O)c5)cc(P(C)(=O)O)n4)CCN(Cc4cc(CCCNC(=O)OC(C)(C)C)cc(P(C)(=O)O)n4)CC3)nc(P(C)(=O)O)c2)ccc1OC [Complex 88a] | 35000 | 332 | 35000 | 13.4 | 13.4 |  | 0.06 | 1.07 | 0.76 | 0.41 | 0.29 | 0.31 |  | 0.31 |  |  | pKa ([4]; 0.1 M NaCl (ionic strength)): 5.2 |
| CCN(CC)c1cc(C#Cc2cc(CN(CC(=O)O)CC(=O)O)nc(CN(CC(=O)O)CC(=O)O)c2)ccc1OCCCN [Complex 104] | 12000 | 330 | 12000 | 3.2 | 3.2 | 0.17 | 0.17 | 0.38 | 0.37 | 0.35 | 0.32 |  |  |  |  | pH sensitive | Excited state lifetime ([3]; pH 8, listed as 104): 0.3 ms; Excited state lifetime ([3]; pH 8, listed as drawing 127): 0.30 ms; pKa ([4]; 0.1 M NaCl (ionic strength)): 6.35 |

Source: US20230382928A1, “EUROPIUM(III) COMPLEXES AS PH SENSORS” (CISBIO BIOASSAYS, priority 2020, published 2023)
